Reference: patent US11510859B2, “Method for improving aqueous solubility of water-insoluble or slightly water-soluble drugs” (MARINOMED BIOTECH AG, priority 2015, dated 2022)

What was measured:
Assay type in all cases: physicochemical
[1] = Budesonide solubility and storage stability in the presence of carrageenan (Examples 1, 2, 12, 13); settings: 1.2 g/L iota-carrageenan, optionally 0.4 g/L kappa-carrageenan; 5% or 10% propylene glycol
Protocol: Samples of series A (0% dexpanthenol): 2.5 ml solution containing the respective escin concentration (McIlvaine 0.01%, 0.02%, 0.03% or McIlvaine buffer) were mixed with 5 ml carrageenan stock solution and 0.5 ml budesonide pre-solution and filled up to 10 ml with distilled water.
Samples of series B (2% dexpanthenol): 2.5 ml solution containing the respective escin concentration (McIlvaine 0.01%, 0.02%, 0.03% or McIlvaine buffer) were mixed with 0.2 ml dexpanthenol, 5 ml carrageenan stock solution and 0.5 ml budesonide pre-solution and filled up to 10 ml with distilled water. […]
After 3 months storage at room temperature, samples were taken and centrifuged for 11 min at 15700 rcf. The clear supernatant was filled into glass vials and the concentration of dissolved budesonide (maximal 500 μg/ml) was measured in duplicates by HPLC.
Budesonide was analyzed by RP-HPLC (UV absorbance detection at 244 nm) using isocratic elution with 55% acetonitrile 0.01% TFA/45% water 0.01% TFA at 1 ml/min for 7 min on an Agilent Zorbax SB C18 3.5 μm 4.6×150 mm column with 4×4 mm RP8 pre-column. From the budesonide-containing samples 40 μl were injected and analyzed. […]

[2] = Solubility of budesonide in 0.25x McIlvaine buffer with/without propylene glycol, saponin, dexpanthenol (Examples 5-9)
Protocol: Budesonide was analyzed by RP-HPLC (UV absorbance detection at 244 nm) using isocratic elution with 55% acetonitrile 0.01% TFA/45% water 0.01% TFA at 1 ml/min for 7 min on an Agilent Zorbax SB C18 3.5 μm 4.6×150 mm column with 4×4 mm RP8 pre-column. From the budesonide-containing samples 40 μl were injected and analyzed.
Buffer • B . . . 5% propylene glycol • C . . . 10% propylene glycol • D . . . 15% propylene glycol • y-axis . . . concentration of dissolved budesonide
FIGS. 2a and 2b refer to the concentrations of budesonide still dissolved after one month of storage at ambient temperature (T˜20-25° C.) in 0.25× McIlvaine buffer containing 5% (FIG. 2a) and 10% (FIG. 2b) propylene glycol (maximum concentration 550 μg/ml budesonide). […] Further increase of escin concentration remains substantially without additional benefit. […] 0% Dexpanthenol • B . . . 1% Dexpanthenol • C . . . 2% Dexpanthenol • D . . . 5% Dexpanthenol • y-axis . . . μg/ml dissolved budesonide • x-axis . . . w/v % Escin
FIGS. 3a and 3b are based on data sets identical to those of FIG. 2a/2b but after 3 months of storage at ambient temperature (T˜20-25° C.). • FIG. 3a: 5% propylene glycol; FIG. 3b: 10% propylene glycol • A . . . 0% Dexpanthenol • B . . . 1% Dexpanthenol • C . . . 2% Dexpanthenol • D . . . 5% Dexpanthenol • y-axis . . . μg/ml dissolved budesonide • x-axis . . . w/v % Escin
FIG. 4 represents that 0.03% w/v escin and 5% v/v dexpanthenol independently increase the solubility of budesonide in McIlvaine buffer in the absence of propylene glycol. […] Yet, the solubility of budesonide in this buffer system, i.e., in the absence of propylene glycol, remains at or below the corresponding values achieved in the presence of propylene glycol alone, i.e., in the absence of escin and dexpanthenol (see FIGS. 2a, b and 3a, b). The only exception being the value at column D which moderately exceeds the solubility values achieved with propylene glycol alone. • A . . . 0% Escin/0% Dexpanthenol • B . . . 0% Escin/5% Dexpanthenol • C . . . 0.03% Escin/0% Dexpanthenol • D . . . 0.03% Escin/5% Dexpanthenol • y-axis . . . concentration of dissolved budesonide in [μg/ml]
For Quillaja saponins, but not for glycyrrhizin, this applies also at a saponin concentration of 0.1%. […] Escin • B . . . Glycyrrhizin • C . . . Quillaja extract • * . . . w/v % Saponin component (escin, glycyrrhizin or Quillaja ext.) • # . . . v/v % Dexpanthenol • y-axis . . . concentration of dissolved budesonide

[3] = Saturation concentrations of drugs in buffered solvent, HPLC of supernatant (Example 4); settings: for Saturation concentration in 10% propylene glycol or DMSO without escin or dexpanthenol / Saturation concentration in 10% propylene glycol or DMSO, 0.1% escin and 5% dexpanthenol: McIlvaine buffer pH 6.0, compound pre-dissolved in propylene glycol
Protocol: 250 μl “McIlvaine 0.1%” were mixed with 50 μl dexpanthenol stock solution, brought to 900 μl with distilled water, and combined and vigorously mixed with 100 μl experimental compound pre-dissolved resp. pre-suspended in propylene glycol. Alternative solutions with compound pre-dilutions/pre-suspensions in DMSO were prepared. Samples were centrifuged for 10 min at 15800 rcf. Aliquots of the clear supernatants were transferred into autosampler glass vials and the content of the dissolved experimental compounds was analyzed by HPLC using isocratic elution with 70% or 80% acetonitrile 0.01% TFA/[…] or 30% water 0.01% TFA at 1 ml/min and 50° C. for 10 min on an Agilent Zorbax Eclipse Plus C18 column (3.5 μm, 4.6×150 mm) and UV absorbance detection at the wavelengths appropriate for the respective experimental compound.

[4] = Micelle formation of saponins, Hoechst 33342 fluorescence
Protocol: In water and aqueous buffers containing a detergent below the critical micelle concentration fluorescence of the Hoechst 33342 dye is almost undetectable. Upon increase of the detergent concentration until the critical micelle concentration is reached micelles begin to form and the dye starts getting incorporated into the micelles, whereupon an increase of a fluorescence signal can be detected. For the experiments of this example, the dye was mixed at a final concentration of 7 μM with aqueous buffer comprising different concentrations of saponin in black, flat and clear bottom 96-well plates and emission spectra were measured using a microplate reader (filters used: ex=355 nm and em=460 nm). Finally, data were background corrected.

CCCC1O[C@@H]2C[C@H]3[C@@H]4CCC5=CC(=O)C=C[C@]5(C)[C@H]4[C@@H](O)C[C@]3(C)[C@]2(C(=O)CO)O1 (stereo partly shown) [Budesonide]
effect of carrageenans on solubility of the steroid [1]: do not substantially interfere with the solubility
effect of escin on solubility of the steroid ([2]; 0.01-0.02% w/v escin, 5% or 10% propylene glycol, one month storage at ambient temperature): dramatically increases the solubility
combined effect of escin and dexpanthenol on budesonide solubility ([2]; 0.03% escin and 5% dexpanthenol, McIlvaine buffer, no propylene glycol): synergy seems to occur
effect of dexpanthenol on stability of the experimental solutions ([2]; 3 months storage at ambient temperature, particularly at 5% propylene glycol and very low escin): seems to improve the stability
effect of glycyrrhizin and Quillaja saponaria extract saponins on steroid solubility ([2]; in the absence of dexpanthenol): without substantial effect

COc1cc(/C=C/C(=O)CC(=O)/C=C/c2ccc(O)c(OC)c2)ccc1O [Curcumin]
Saturation concentration in 10% propylene glycol or DMSO, escin and 5% dexpanthenol ([3]; 0.03% escin): 126 µg/mL
Saturation concentration in 10% propylene glycol or DMSO, saponin and 5% dexpanthenol ([3]; 2% glycyrrhizin instead of escin): 285 µg/mL
Saturation concentration in 10% propylene glycol or DMSO without escin or dexpanthenol [3]: <0.2 µg/mL

CC(=O)O[C@H]1C(=O)[C@@]2(C)[C@H]([C@H](OC(=O)c3ccccc3)[C@]3(O)C[C@H](OC(=O)[C@H](O)[C@@H](NC(=O)c4ccccc4)c4ccccc4)C(C)=C1C3(C)C)[C@]1(OC(C)=O)CO[C@@H]1C[C@@H]2O [Paclitaxel]
Saturation concentration in 10% propylene glycol or DMSO without escin or dexpanthenol [3]: 2.71 µg/mL
Saturation concentration in 10% propylene glycol or DMSO, 0.1% escin and 5% dexpanthenol [3]: 32.7 µg/mL

CC[C@@H]1/C=C(\C)C[C@H](C)C[C@H](OC)[C@H]2O[C@@](O)(C(=O)C(=O)N3CCCC[C@H]3C(=O)O[C@H](/C(C)=C/[C@@H]3CC[C@H](Cl)[C@H](OC)C3)[C@H](C)[C@@H](O)CC1=O)[C@H](C)C[C@@H]2OC [Pimecrolimus]
Saturation concentration in 10% propylene glycol or DMSO, saponin and 5% dexpanthenol ([3]; 1% glycyrrhizin instead of escin): 34.5 µg/mL
Saturation concentration in 10% propylene glycol or DMSO without escin or dexpanthenol [3]: <0.1 µg/mL

C=CC[C@@H]1/C=C(\C)C[C@H](C)C[C@H](OC)[C@H]2O[C@@](O)(C(=O)C(=O)N3CCCC[C@H]3C(=O)O[C@H](/C(C)=C/[C@@H]3CC[C@@H](O)[C@H](OC)C3)[C@H](C)[C@@H](O)CC1=O)[C@H](C)C[C@@H]2OC.O [Tacrolimus/FK506, Tacrolimus]
Saturation concentration in 10% propylene glycol or DMSO without escin or dexpanthenol [3]: 132 µg/mL
Saturation concentration in 10% propylene glycol or DMSO, 0.1% escin and 5% dexpanthenol [3]: 774 µg/mL

CC1(C)[C@@H](O[C@H]2O[C@H](C(=O)O)[C@@H](O)[C@H](O)[C@H]2O[C@@H]2O[C@H](C(=O)O)[C@@H](O)[C@H](O)[C@H]2O)CC[C@]2(C)[C@H]3C(=O)C=C4[C@@H]5C[C@@](C)(C(=O)O)CC[C@]5(C)CC[C@@]4(C)[C@]3(C)CC[C@@H]12 [glycyrrhizin]
concentration sufficient to trigger the formation of micelles (same RFU level) ([4]; Hoechst 33342 dye 7 μM, room temperature): 0.5%
increase of required concentration relative to escin ([4]; same fluorescence level): 25 fold
